From paper PMC6264310, “Synthesis and Pharmacological Activity of Diterpenylnaphthoquinone Derivatives” (Molecules, 2011)

Key:
[1] = system: HCl-EtOH-induced gastric lesions; experiment: HCl-EtOH-induced gastric lesion model in mice; type: in vivo
Protocol: 3.5. HCl-EtOH-Induced Ulcer Model in Mice
The gastroprotective activity of the compounds was assessed in the EtOH-HCl-induced gastric lesion model. Male Swiss albino mice weighing 30 ± 3 g were used. The animals were fed on certified Champion diet with free access to water under standard conditions of 12 h dark-light period, 50% relative humidity, and 22 °C room temperature. The mice were randomly distributed into groups of 7–14 animals each and fasted for 24 h with free access to water before the oral administration of test samples by gavage. The purity of the tested compounds was higher than 95% by NMR analysis. To keep the animal numbers to a minimum, dose-response studies were performed with lapachol at 5, 10 and 50 mg/kg to set the conditions for single-dose comparison of gastroprotective effect. The tested compounds, lansoprazole (20 mg/kg) or the vehicle (12% Tween 80, 10 mL/kg) were administered orally by gavage. After 50 min, all groups were orally treated with 0.2 mL of a solution containing 60% EtOH-0.3 M HCl for gastric lesion induction. Animals were sacrificed by cervical dislocation 1 h after the administration of EtOH-HCl, and the stomachs excised and inflated by injection of 5% formalin (1 mL). The ulcerated stomachs were fixed in 5% formalin for 30 min and opened along the greater curvature. The length (mm) of each lesion was measured, and the lesion index expressed as the sum of the length of all lesions. Based on previous studies on the parent diterpenes, comparison of the new compounds 1–12 was carried out at a single oral dose of 5 mg/kg. The protocols were approved by the Universidad de Talca Institutional Animal Care and Use Committee, which follows the recommendations of the Canadian Council on Animal Care. Tween 80 and lansoprazole (>98% purity by HPLC) were purchased from Sigma-Aldrich.
Results were expressed as the mean ± SEM. In all experiments, statistical differences between several treatments and their respective control were determined by one-way ANOVA with Student-Newman-Keuls post-hoc test. The level of significance was set at P < 0.05.

MRC-5 fibroblasts = experiment: Basal cytotoxicity, neutral red uptake assay, MRC-5; type: cell-based; conditions: Homo sapiens, MRC5, MRC-5, confluent cultures, 24 h, read-out: IC50 ± SEM, Fibroblasts
Protocol: (§1) 3.6. Cytotoxicity Assay
(§2) The human cell lines MRC-5 normal lung fibroblasts (ATCC CCL-171), AGS gastric adenocarcinoma cells (ATCC CRL-1739), and Hep G2 hepatocellular carcinoma cells (ATCC HB-8065) were obtained from the American Type Culture Collection (ATCC, Manassas, VA, USA). The cells were grown as monolayers in the following media: MRC-5 and Hep G2 in minimum essential Eagle’s medium (MEM), with Earle’s salts, 2.0 mM L-glutamine (Sigma Chemical Co.) and 2.2 g/L sodium bicarbonate (Sigma Chemical Co.), supplemented with 10% heat-inactivated fetal bovine serum (FBS), 100 IU/mL penicillin, and 100 µg/mL streptomycin in a humidified incubator with 5% CO2 in air at 37 °C. Cell passage was maintained between 10 and 16 for MRC-5 and between 79 and 82 for Hep G2 cells. The medium was changed every 2 days. Culture media, antibiotics, and FBS were obtained from Invitrogen Corp. Human gastric adenocarcinoma cells AGS (ATCC CRL-1739) were grown as monolayers in Ham F-12 medium containing 1.0 mM L-glutamine and 1.5 g/L sodium bicarbonate, supplemented with 10% heat-inactivated FBS, 100 IU/mL penicillin, and 100 µg/mL streptomycin in a humidified incubator with 5% CO2 in air at 37 °C. Cell passage was maintained between 42 and 48. The medium was changed every 2 days.
(§3) Confluent cultures of the different cell lines were treated with medium containing the compounds at concentrations ranging from 1 up to 1,000 µM. The antisecretory drug lansoprazole was used as reference compound. The substances were first dissolved in DMSO and then in the corresponding culture medium supplemented with 2% FBS. The final concentration of DMSO in the test medium and controls was 1%. The cells were exposed for 24 h to test medium with or without the compound (control). Each concentration was tested in quadruplicate together with the control and repeated three times in separate experiments. At the end of the incubation the neutral red uptake assay was performed.

AGS cells = experiment: Basal cytotoxicity, neutral red uptake assay, AGS; type: cell-based; conditions: Homo sapiens, confluent cultures, 24 h, read-out: IC50 ± SEM, AGS
Protocol: as §1, §2, §3

Hep G2 cells = experiment: Basal cytotoxicity, neutral red uptake assay, Hep G2; type: cell-based; conditions: Homo sapiens, HepG2, Hep G2, confluent cultures, 24 h, read-out: IC50 ± SEM, Hep G2
Protocol: as §1, §2, §3

[2] = Mus musculus, 1 h, mice, single oral dose of 5 mg/kg, read-out: Protected stomachs (number of stomachs completely protected from any visible bleeding) (converted)
[3] = Mus musculus, 1 h, mice, single oral dose of 5 mg/kg, read-out: Protection (%)
[4] = mice, single oral dose of 5 mg/kg

Row | SMILES | responders at 5 mg/kg [1, 2] [%] | inhibition in vivo at 5 mg/kg [1, 3] [%] | Lesion index (mm) Mean ± SEM [1, 4] [mm] | IC50 (MRC-5 fibroblasts) [µM] | IC50 (AGS cells) [µM] | IC50 (Hep G2 cells) [µM] | Gastroprotective effect compared with the vehicle control (Tween 80) ([1]; mice, 5, 10 and 50 mg/kg, data not shown) | responders at 20 mg/kg ([1]; Mus musculus, 1 h, mice, oral, 20 mg/kg, read-out: Protected stomachs (number of stomachs completely protected from any visible bleeding) (converted)) [%] | inhibition in vivo at 20 mg/kg ([1]; Mus musculus, 1 h, mice, oral, 20 mg/kg, read-out: Protection (%)) [%] | Lesion index (mm) Mean ± SEM ([1]; mice, oral, 20 mg/kg) [mm]
1 | COC(=O)[C@@]1(C)CCC[C@]2(C)C(CC[C@@H](C)CC(=O)OC3=C(CC=C(C)C)C(=O)c4ccccc4C3=O)=C(C)CCC12 (stereo partly drawn) [Compound 8, Lapachoyl Δ8(9) junicedrate methyl ester] | 55.6 | 84 | 3.9 ± 1.9 | > 1000 | 721 ± 35 | 379 ± 21 | – | – | – | –
2 | COC(=O)[C@@]1(C)CCC[C@]2(C)C(CC[C@@H](C)CC(=O)OC3=C(CC=C(C)C)C(=O)c4ccccc4C3=O)[C@@H](C)CCC21 (stereo partly drawn) [Compound 12, Lapachoyl 17β-dihydrojunicedrate methyl ester] | 0 | – | 27.4 ± 6.8 | 926 ± 35 | 323 ± 16 | 290 ± 9 | – | – | – | –
3 | CC(C)=CCC1=C(O)C(=O)c2ccccc2C1=O [Lapachol (IV), 2-hydroxy-3-(3-methyl-2-butenyl)-[1,4]-naphthoquinone, reference compound] | – | – | – | > 1000 | 382 ± 15 | 55 ± 3 | did not present a statistically significant effect | – | – | –
4 | C=C1CCC2[C@](C)(CCC[C@]2(C)C(=O)OC)[C@H]1CC[C@@H](C)CC(=O)OC1=C(CC=C(C)C)C(=O)c2ccccc2C1=O (stereo partly drawn) [Compound 2, Lapachoyl junicedrate methyl ester] | 44.4 | 65 | 8.7 ± 3.9 | 741 ± 40 | 361 ± 19 | 208 ± 11 | – | – | – | –
5 | C=C1CCC2[C@](C)(CCC[C@]2(C)C(=O)O)[C@H]1CC[C@@H](C)CC(=O)O (stereo partly drawn) [Junicedric acid (I), junicedric acid, reference compound] | – | – | – | 181 ± 9 | 304 ± 18 | > 1000 | – | – | – | –
6 | CC1=C(CC[C@@H](C)CC(=O)OC2=C(CCC(C)C)C(=O)c3ccccc3C2=O)[C@@]2(C)CCC[C@](C)(C(=O)O)C2CC1 (stereo partly drawn) [Compound 9, Dihydroprenyl lapachoyl Δ8(9) junicedrate] | 0 | 64 | 15.7 ± 4.5 | 341 ± 17 | 294 ± 15 | > 1000 | – | – | – | –
7 | C=C1CCC2[C@](C)(CCC[C@]2(C)C(=O)O)[C@H]1CC[C@@H](C)CC(=O)OC1=C(CCC(C)C)C(=O)C2=C(CCCC2)C1=O (stereo partly drawn) [Compound 5, Dihydroprenyl-5,6,7,8-tetrahydrolapachoyl junicedrate] | 0 | 18 | 20.4 ± 3.6 | 69 ± 3 | 40 ± 6 | 27 ± 1 | – | – | – | –
8 | CC1=C(CC[C@@H](C)CC(=O)O)[C@@]2(C)CCC[C@](C)(C(=O)O)C2CC1 (stereo partly drawn) [Δ8(9) junicedric acid (II), Δ8(9) Junicedric acid, reference compound] | 44.4 | 79 | 5.3 ± 2.4 | 214 ± 32 | 343 ± 22 | > 1000 | – | – | – | –
9 | C=C1CCC2[C@](C)(CCC[C@]2(C)C(=O)O)[C@H]1CC[C@@H](C)CC(=O)OC1=C(CC=C(C)C)C(=O)c2ccccc2C1=O (stereo partly drawn) [Compound 1, Lapachoyl junicedrate] | – | 44 | 15.3 ± 5.0 | 210 ± 13 | 170 ± 9 | 57.4 ± 4.4 | – | – | – | –
10 | CC(C)=CCC1=C(OC(=O)C[C@H](C)CCC2[C@@H](C)CCC3[C@]2(C)CCC[C@]3(C)C(=O)O)C(=O)c2ccccc2C1=O (stereo partly drawn) [Compound 11, Lapachoyl 17β-dihydrojunicedrate] | 0 | 6 | 23.5 ± 3.6 | 336 ± 15 | 114 ± 7 | 54.5 ± 5 | – | – | – | –
11 | COC(=O)[C@@]1(C)CCC[C@]2(C)C(CC[C@@H](C)CC(=O)OC3=C(CCC(C)C)C(=O)c4ccccc4C3=O)=C(C)CCC12 (stereo partly drawn) [Compound 10, Dihydroprenyl lapachoyl Δ8(9) junicedrate methyl ester] | 33.3 | 76 | 10.2 ± 3.5 | > 1000 | 162 ± 10 | > 1000 | – | – | – | –
12 | Cc1c(OCC(F)(F)F)ccnc1C[S+]([O-])c1nc2ccccc2[nH]1 (stereo not drawn) [Lansoprazole, lansoprazole, reference compound] | – | – | – | 306 ± 11 | 162 ± 6 | 221 ± 9 | – | 66.7 | 73 | 9.4 ± 1.2
13 | CC(C)=CCC1=C(OC(=O)C[C@H](C)CCC2=C(C)CCC3[C@@](C)(C(=O)O)CCC[C@]23C)C(=O)c2ccccc2C1=O (stereo partly drawn) [Compound 7, Lapachoyl Δ8(9) junicedrate] | 12.5 | 54 | 11.5 ± 4.4 | 190 ± 8 | 179 ± 9 | 96 ± 9 | – | – | – | –
14 | C=C1CCC2[C@](C)(CCC[C@]2(C)C(=O)OC)[C@H]1CC[C@@H](C)CC(=O)OC1=C(CCC(C)C)C(=O)c2ccccc2C1=O (stereo partly drawn) [Compound 4, Dihydroprenyl lapachoyl junicedrate methyl ester] | 0 | 55 | 19.3 ± 5.0 | > 1000 | 382 ± 26 | > 1000 | – | – | – | –
15 | COc1cc([C@@H]2c3cc4c(cc3[C@@H](O[C@@H]3O[C@@H]5CO[C@@H](C)O[C@H]5[C@H](O)[C@H]3O)[C@H]3COC(=O)[C@H]23)OCO4)cc(OC)c1O [Etoposide, reference compound] | – | – | – | – | 0.58 ± 0.02 | – | – | – | – | –
